Results taken from patent publication US20050107270A1, “Alkyl ethanolamines for the control of mycobacteria in functional fluid” (priority 2003, published 2005).

Key:
Format in all cases: cell-based
[1] = tested on: Mycobacterium marinum (ATCC # 927); experiment: Mycobacterium marinum growth control, optical absorbance at 660 nm (Example 3); details: 72 hours
Description: The impact of these N-alkyl alkanolamines on the control of the bacterial species Mycobacterium marinum (ATCC # 927) is given in Table 3. Bacterial concentration in the experimental media was monitored indirectly via optical absorbance at 660 nm. The values reported are end-point optical densities in milliOD units after 72 hours. The media consisted of a standardized solution of clear nutrient broth (Middlebrook 7H 10 with OADC supplement), amine, buffer (Tris) and water. The pH was adjusted initially to 8.5 with Tris buffer. The first column in Table 3 gives the amine concentration in parts per million by weight. In all cases, the values are averages of at least three replicates. The final row of Table 3 gives an estimate of the concentration range in which the amine in question starts to inhibit the growth of this bacterial species (minimum inhibitor concentration MIC).

[2] = tested on: Mycobacterium smegmatis (ATCC # 19420); experiment: Mycobacterium smegmatis growth control, optical absorbance at 660 nm (Example 2); details: 48 hours
Description: The impact of these N-alkyl alkanolamines on the control of the bacterial species Mycobacterium smegmatis (ATCC # 19420) is given in the Table 2. Bacterial concentration in the experimental media was monitored indirectly via optical absorbance at 660 nm. The values reported are end-point optical densities in milliOD units after 48 hours. The media consisted of a standardized solution of clear nutrient broth (Middlebrook 7H10 with OADC supplement), amine, buffer (Tris) and water. The pH was adjusted initially to 8.5 with Tris buffer. The first column in the Table gives the amine concentration in parts per million by weight. The final two columns give data for cells that also contained 2 grams per liter of boric acid. In all cases, the values are averages of at least three replicate runs. The final row of Table 2 gives an estimate of the concentration range in which the amine in question starts to inhibit the growth of this bacterial species (minimum inhibitor concentration MIC).

[3] = tested on: Mycobacterium smegmatis (ATCC # 19420); experiment: Mycobacterium smegmatis growth control, optical absorbance at 590 nm with tetrazolium dye (Example 1); details: compared with AMP (2-amino-2-methyl-1-propanol)
[4] = with 2 grams per liter of boric acid

| SMILES | MIC (minimum inhibitor concentration), estimated concentration range in which the amine starts to inhibit growth [1] | MIC (minimum inhibitor concentration), estimated concentration range in which the amine starts to inhibit growth ([2]; no boric acid) | MIC (minimum inhibitor concentration), estimated concentration range in which the amine starts to inhibit growth [2, 4] | effectiveness against Mycobacteria, in words [3] |
| --- | --- | --- | --- | --- |
| CCCCNCCO [BAE, butylaminoethanol] | >4000 ppm |  |  |  |
| C1CCC(NC2CCCCC2)CC1 [DCHA, Dicyclohexylamine, reference compound] | >4000 ppm | 1500-2000 ppm | 1000-2000 ppm |  |
| CCCCCCCCNCCO [OAE, octylaminoethanol] | 1200-2000 ppm | <500 ppm | <500 ppm | markedly more effective than AMP |
| CCCCCCCCN(CCO)CCO [ODEA, Octyldiethanolamine] | 1200-2000 ppm | 500-1000 ppm |  |  |
